Data as given in patent publication US7906484B2, “Complex for transferring an anionic substance into a cell” (Alnylam Pharmaceuticals, Inc., priority 2006, dated 2011).
No end group written: not given here.

Key:
cell viability = assay: CytoTox ONE cell viability assay; format: cell-based; details: 2.5 μM peptide
Experimental: Delivery of siRNAs was tested in 7 different cell lines we obtained from the American Type Culture Collection, ATCC, via LCG Promochem GmbH, Wesel, Germany (PC12, ATTC# CRL-1721; HCT116, ATCC# CCL-247; C33A, ATCC# HTB-31; H441, ATCC# HTB-174; NMuLi, ATCC# CRL-1638; HepG2, ATCC# HB-8065; HeLa S3, ATCC# CCL2.2) and in the cell line KB-BCL2-GFP, as described in co-pending U.S. Ser. No. 10/941,663. Target mRNA quantification was performed using the QuantiGene™ bDNA-kit from Panomics, Inc., Fremont, USA, according to the manufacturers instructions, and essentially as described below for H441 cells. Genes constitutively expressed in the various cell lines were chosen as targets and results normalized to GAPDH expression. siRNA concentration was 250 nM, the concentration of the peptide was chosen as given by the molar ratio peptide/siRNA shown in Table 1. Cytotoxicity of peptides was evaluated employing the CytoTox-ONE™ assay (Promega GmbH, Mannheim, Germany).
Potential cytotoxic effects as mediator of inhibition were ruled out by determining cell viability in the presence of 2.5 μM of ppTG20, AP-0, AP-1, AP-27, AP-30, AP32 and AP-34 using the CytoTox ONE™ assay (Promega GmbH, Mannheim, Germany).

[1] = tested on: E6AP mRNA in HCT116 cells; assay: siRNA AD-8724 delivery into HCT116 cells, inhibition of E6AP mRNA expression by bDNA assay; format: cell-based, human
Experimental: All further experiments were carried out using HCT116 cells and inhibition of E6AP expression as readout.
HCT116-cells were obtained from the American Type Culture Collection (ATCC# CCL-247). They were cultured in McCoy's 5A medium (Biochrom AG, Berlin, Germany, Cat.# F1015) containing 10% fetal calf serum (FCS; Biochrom AG, Berlin, Germany, Cat.# S0115) and 2 mM L-Glutamin (Biochrom AG, Berlin, Germany, Cat.#: K0283) (standard growth medium). For incubation with peptide/siRNA, complexes, the medium was replaced by serum-free McCoy's 5A medium containing 2 mM L-Glutamin (serum free medium). After incubation with complexes for 4 h, McCoy's 5A medium containing 30% fetal calf serum and 2 mM L-Glutamin (triple FCS medium) was added to restore an overall 10% FCS in the medium.
The E6AP-specific siRNA denoted AD-8724 herein was used, having the following sequences: antisense strand: 5′-ucacauuccacguuaggugTsT-3′ (SEQ ID NO:51), sense strand 5′-caccuaacguggaaugugaTsT-3′; (SEQ ID NO:52; lower case letters: ribonucleotides; s: phosphorothioate backbone linkage). As a negative control, an siRNA specific for eGFP, denoted AD-5107 herein, was used, having the following sequences: antisense strand: 5′-aagucgugcugcuucauguggOMesuOMesc-3′ (SEQ ID NO:19), sense strand 5′-[…]-3′ (SEQ ID NO:18; lower case letters: ribonucleotides; subscript OMe: 2′-O-methyl-ribonucleotide; s: phosphorothioate backbone linkage). In addition to the non-specific control siRNA AD-5107, mock transfected cells treated with standard growth medium only were used as negative controls. As a positive control, AD-8724 was transfected into the cells using Lipofectamine2000™ (Invitrogen, Karlsruhe, Germany, Cat. No. 11668-019). As a further control, AD-5107 was transfected into cells using Lipofectamine2000™. All assays were performed in quadruplicates.
SiRNA/peptide complexes were prepared by mixing a solution of the siRNA in deionized water with a solution of the peptide in deionized water at the appropriate concentrations to give the desired ratio of siRNA/peptide at the desired concentration of the complex. The mixture was incubated at room temperature for 30 min and kept at 4° C. until use, and used within 24 h.
For transfections with siRNA/peptide complexes, 1.5×10^5 HCT116-cells per well in 150 μl standard growth medium were seeded into polystyrene 96 well plates and grown for 24 h at 37° C. in an atmosphere containing 5% CO2. The medium was removed by aspiration, and 90 μl serum-free medium and 10 μl of siRNA/peptide complex solution were added. Cells were incubated for 4 h at 37° C./5% CO2, 50 μl triple FCS medium were added, and the cells incubated for another 20 h under identical conditions. Subsequently, E6AP mRNA content was determined as described below.
For Lipofectamine2000™ transfections, 0.5 μl Lipofectamine2000™ were mixed with 12 μl OptiMem™ (Invitrogen, Karlsruhe, Germany, Cat. No. 11058-021) and incubated for 15 min. 1 μl of a 5 μM solution of the respective siRNA in PBS (Biochrom AG, Berlin, Germany, Cat-No: L182-05) were added to 11.5 μl OptiMeM™, mixed with the Lipofectamine2000™/OptiMem™ solution, and incubated for further 15 min. 1.5×10^5 HCT116-cells per well in 150 μl standard growth medium were grown for 24 h as described above, the growth medium removed from the cells by aspiration, and 75 μl fresh standard growth medium and the 25 μl of the siRNA/Lipofectamine2000™ mix were added to the well, to give a final siRNA concentration of 50 nM. The cells were incubated for 24 h at 37° C./5% CO2 and E6AP mRNA concentration determined.
The QuantiGene™ bDNA-kit from Panomics, Inc., Fremont, USA, was used according to manufacturer's instructions. Briefly, cells were lysed by adding 50 μl of Lysis Mixture (from QuantiGene bDNA-kit) to each well and incubation at 53° C. for 1 h. […]

eGFP-mRNA = assay: Influence of peptide/siRNA ratio on siRNA activity in HCT116 cells; format: cell-based; details: 250 nM siRNA
Experimental: The optimal ratio of (peptide):(anionic substance) for complex formation, was determined in section 3 above to lie in the range of 8:1 to 13:1 by titrating a fixed concentration of the anionic substance with increasing amounts of the peptide, and monitoring complex formation by electrophoresis of the mixture. To further validate and possibly narrow down the optimum ratio of peptide/anionic substance, an assay with a functional readout was performed. HCT116 cells were incubated with siRNA complexes as described above at concentrations such that the amount of siRNA in the incubation mixture corresponds to a 250 nM concentration of the siRNA, and the peptide/siRNA ratio was 8:1, 10:1, 12:1, or 14:1.

[2] = siRNA AD-8724 250 nM, molar peptide/siRNA ratio 12.5:1
[3] = AD-8724, siRNA/peptide conc. 25 nM/250 nM
[4] = AD-8724, siRNA/peptide conc. 250 nM/2.5 μM
[5] = AD-8724, siRNA/peptide conc. 1 μM/10 μM

| Sequence | cell viability (cell viability) | remaining E6AP mRNA (in % of mock) [1, 2] [%] | Remaining eGFP-mRNA in % of mock-transfected controls (eGFP-mRNA; peptide/siRNA ratio 8:1) [%] | Remaining eGFP-mRNA in % of mock-transfected controls (eGFP-mRNA; peptide/siRNA ratio 10:1) | Remaining eGFP-mRNA in % of mock-transfected controls (eGFP-mRNA; peptide/siRNA ratio 12:1) [%] | Remaining eGFP-mRNA in % of mock-transfected controls (eGFP-mRNA; peptide/siRNA ratio 14:1) [%] | also measured |
| --- | --- | --- | --- | --- | --- | --- | --- |
| HHHHHRLFRALLRLLRSLWRLLLRA [AP-30] | None of these peptides led to a significant alteration of cell viability | – | – | – | – | – | – |
| HHHHHRLFRALLRLLRSLWRLLLRAHHHHH [AP-32] | None of these peptides led to a significant alteration of cell viability | – | – | – | – | – | – |
| HLFRALHRLLRHLWRLLHRA [AP-12] | – | 94 ± 31 | – | – | – | – | – |
| HLFRALLRLLRHLWRLLHRA [AP-11] | – | 62 ± 15 | 27 ± 5 | 30 ± 8% | 30 ± 5 | 24 ± 5 | – |
| HLFRALLRLLRHLWRLLLRAHHHHH [AP-29] | – | – | – | – | – | – | remaining E6AP mRNA (in % of mock) [1, 3]: 58 ± 8%; remaining E6AP mRNA (in % of mock) [1, 4]: 16 ± 2%; remaining E6AP mRNA (in % of mock) [1, 5]: 11 ± 1% |
| HLFRALLRLLRSLWRLLHRA [AP-9] | – | 53 ± 17 | 38 ± 6 | 31 ± 3% | 22 ± 1 | 36 ± 7 | – |
| HLFRALRRLLRHLWRLLRRA [AP-13] | – | 59 ± 7 | – | – | – | – | – |
| HLFRHLLRLLRHLWRHLLRA [AP-15] | – | 77 ± 39 | 32 ± 5 | 26 + 2% | 22 ± 4 | 43 ± 5 | – |
| HLFRHLLRLLRRLWHLLHRA [AP-14] | – | 56 ± 21 | 41 ± 2 | 41 ± 12% | 19 ± 2 | 39 ± 7 | – |
| RLFPALLRLLRRLWRLLLRA [AP-6] | – | 41 ± 11 | 62 ± 9 | 36 ± 8% | 63 ± 18 | 54 ± 9 | – |
| RLFRALLRLLRRLWRLLRRA [AP-7] | – | 134 ± 19 | – | – | – | – | – |
| RLFRALLRLLRSLWRLLLRA [AP-1] | None of these peptides led to a significant alteration of cell viability | – | – | – | – | – | – |
| RLFRALLRLLRSLWRLLLRAHHHHH [AP-27] | None of these peptides led to a significant alteration of cell viability | – | – | – | – | – | – |
| RLFRALLRLLRSLWRLLLRAHHHHHHHHHH [AP-34] | None of these peptides led to a significant alteration of cell viability | – | – | – | – | – | – |
| RLFRALLRLLRSLWRLLRRAHHHHH [AP-28] | – | – | – | – | – | – | remaining E6AP mRNA (in % of mock) [1, 3]: 105 ± 13%; remaining E6AP mRNA (in % of mock) [1, 4]: 30 ± 9%; remaining E6AP mRNA (in % of mock) [1, 5]: 18 ± 2% |
| RLFRALRRLLRRLWRLLRRA [AP-8] | – | 170 ± 44 | – | – | – | – | – |
